Assay results published in article PMC9369419 (International Journal of Molecular Sciences, 2022).

Biological target: T1, GluK5 (Rattus norvegicus, UniProt Q63273)
T1 construct: made in house; host or cells: Sf9 insect cells (membranes)
T1 sequence (Q63273 15-979): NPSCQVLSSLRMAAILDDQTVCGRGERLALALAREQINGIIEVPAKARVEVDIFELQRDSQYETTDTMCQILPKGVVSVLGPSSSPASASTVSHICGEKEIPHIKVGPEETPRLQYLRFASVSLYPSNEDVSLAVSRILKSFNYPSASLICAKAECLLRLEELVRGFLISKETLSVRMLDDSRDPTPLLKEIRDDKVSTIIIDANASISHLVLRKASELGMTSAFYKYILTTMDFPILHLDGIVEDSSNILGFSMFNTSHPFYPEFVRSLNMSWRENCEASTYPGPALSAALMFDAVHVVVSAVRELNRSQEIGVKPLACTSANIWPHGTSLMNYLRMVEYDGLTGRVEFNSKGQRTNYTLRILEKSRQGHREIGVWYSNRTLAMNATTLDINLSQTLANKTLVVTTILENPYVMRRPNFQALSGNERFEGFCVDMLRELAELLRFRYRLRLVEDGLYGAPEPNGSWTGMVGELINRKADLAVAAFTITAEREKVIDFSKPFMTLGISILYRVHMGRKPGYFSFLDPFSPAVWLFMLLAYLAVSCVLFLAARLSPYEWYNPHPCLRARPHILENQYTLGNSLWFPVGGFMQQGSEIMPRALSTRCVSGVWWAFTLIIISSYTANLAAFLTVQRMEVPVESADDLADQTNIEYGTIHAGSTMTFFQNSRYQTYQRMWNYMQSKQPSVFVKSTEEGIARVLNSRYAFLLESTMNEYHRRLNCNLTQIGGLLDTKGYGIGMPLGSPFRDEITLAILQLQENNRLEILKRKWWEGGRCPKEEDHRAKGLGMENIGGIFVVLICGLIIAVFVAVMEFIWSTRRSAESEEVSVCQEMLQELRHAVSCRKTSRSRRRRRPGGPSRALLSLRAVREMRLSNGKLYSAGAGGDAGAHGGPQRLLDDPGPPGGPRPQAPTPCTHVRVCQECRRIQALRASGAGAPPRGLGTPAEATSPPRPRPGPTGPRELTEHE
Experiment: Radioligand binding at recombinant homomeric GluK5 in Sf9 membranes
Settings: recombinant rat homomeric receptor, [3H]-kainic acid, mean ± SEM
Procedure: Ligand binding affinities at recombinant rat homomeric GluA2, GluK1−3, and GluK5 were determined as previously detailed. […] The filters were dried at 70 °C for 1 h, and 50 μL/well Microscint 20 (PerkinElmer, Waltham, MA, USA) was added. Radioactivity was detected with a TopCounter (PerkinElmer, Waltham, MA, USA). GluA2 and GluK5 assays were filtered on GF/C type filters using Millipore 12-well filtration manifolds (Merck Life Science, Søborg, Denmark) and washed twice with ice-cold assay buffer. Filters were placed in pony vials (PerkinElmer, Waltham, MA, USA), 3 mL of Ultima Gold scintillation fluid (PerkinElmer, Waltham, MA, USA) was added, and DPM (disintegrations per minute) were determined using a TriCarb 2900 scintillation counter (PerkinElmer, Waltham, MA, USA).
All competition curves (n ≥ 3 per ligand) were determined in triplicate. Data were analyzed using GraphPad Prism 6 (GraphPad Software, San Diego, CA, USA) to determine ligand affinity (Ki) and Hill coefficient (nH) using the one-site Ki and four-parameter logistics equations, respectively.

Compound: O=C(Nn1c(=O)c(=O)[nH]c2cc(C#Cc3cnc4cccnn34)ccc21)c1ccccc1 [Compound 28]
- Ki: > 100 µM
